Experimental data: the supplement of paper PMC10307832

Experiments:
Test in all cases: relative viability (nuclei count vs DMSO), 5 days (fraction); higher = more cells survive
CUDC-101 = compound: C#Cc1cccc(Nc2ncnc3cc(OC)c(OCCCCCCC(=O)NO)cc23)c1 [CUDC-101]
Procedure, shortened: (§1)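 Viability here means nuclei in treated wells divided by nuclei in vehicle wells, reported as the median across plates. Only plates with control CV below 25% and at least one doubling passed. Lung cancer cell lines in 1536-well plates were exposed to five √10-spaced library-drug doses for 5 days and counted from 4× Hoechst images in MetaXpress.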

[1] = compound: C1=CC=C2C(=C1)N=C(S2)C(C#N)C3=NC(=NC=C3)NCCC4=CN=CC=C4
Procedure, shortened: as §1

NVP-TAE684 = compound: COc1cc(N2CCC(N3CCN(C)CC3)CC2)ccc1Nc1ncc(Cl)c(Nc2ccccc2S(=O)(=O)C(C)C)n1 [NVP-TAE684]
Procedure, shortened: as §1

Vandetanib = compound: COc1cc2/c(=N/c3ccc(Br)cc3F)nc[nH]c2cc1OCC1CCN(C)CC1 [Vandetanib]
Procedure, shortened: as §1

| Cell Line | relative viability (CUDC-101; 0.01 µM) | relative viability (CUDC-101; 0.03162 µM) | relative viability (CUDC-101; 0.1 µM) | relative viability (CUDC-101; 0.3162 µM) | relative viability (CUDC-101; 1 µM) | relative viability ([1]; 0.005 µM) | relative viability ([1]; 0.01581 µM) | relative viability ([1]; 0.05 µM) | relative viability ([1]; 0.1581 µM) | relative viability ([1]; 0.5 µM) | relative viability (NVP-TAE684; 0.2 µM) | relative viability (NVP-TAE684; 0.6325 µM) | relative viability (NVP-TAE684; 2 µM) | relative viability (Vandetanib; 0.02 µM) | relative viability (Vandetanib; 0.06325 µM) | relative viability (Vandetanib; 0.2 µM) | relative viability (Vandetanib; 0.6325 µM) | relative viability (Vandetanib; 2 µM) |
| --- | --- | --- | --- | --- | --- | --- | --- | --- | --- | --- | --- | --- | --- | --- | --- | --- | --- | --- |
| NCI-H2023 | 1.02 | 0.884 | 0.962 | 1.15 | 0.87 | 0.887 | 1.02 | 0.889 | 1.16 | 0.935 | 1.02 | 0.756 | 0.265 | 0.909 | 0.947 | 1.02 | 0.917 | 0.936 |
| SK-LU-1 | 1.19 | 0.988 | 1.07 | 0.963 | 0.87 | 0.783 | 1.21 | 1.03 | 1.18 | 0.948 | 1.12 | 0.962 | 0.733 | 1.01 | 0.791 | 1.02 | 1.07 | 0.984 |
| LCLC-97TM1 | 1.05 | 0.917 | 1.06 | 1.02 | 0.832 | 0.944 | 0.991 | 0.974 | 1.13 | 1.08 | 0.897 | 0.735 | 0.471 | 1.05 | 0.939 | 1.01 | 1.05 | 0.832 |
| NCI-H1915 | 0.981 | 1.03 | 0.956 | 0.936 | 0.793 | 0.925 | 1.03 | 0.969 | 1.1 | 0.94 | 1.02 | 1.02 | 0.949 | 0.956 | 0.984 | 1.01 | 0.97 | 0.985 |
| NCI-H358 | 1.04 | 0.873 | 0.91 | 0.804 | 0.63 | 0.784 | 0.904 | 0.823 | 1.06 | 0.913 | 0.898 | 0.791 | 0.289 | 0.918 | 0.86 | 0.877 | 0.731 | 0.568 |
| LK-2 | 1.09 | 0.978 | 0.948 | 0.885 | 0.546 | 0.753 | 1.11 | 0.97 | 1.21 | 1.07 | 1.09 | 0.924 | 0.356 | 0.97 | 0.969 | 0.966 | 1.06 | 0.815 |
| EPLC-272H | 1.04 | 0.9 | 0.838 | 0.79 | 0.418 | 0.915 | 0.882 | 0.958 | 1.11 | 0.895 | 0.9 | 0.667 | 0.688 | 0.941 | 0.834 | 0.975 | 0.941 | 0.923 |
| A-427 | 1.02 | 0.978 | 0.949 | 0.932 | 0.738 | 0.993 | 0.875 | 0.919 | 1.15 | 0.95 | 1.11 | 0.847 | 0.863 | 0.955 | 0.963 | 0.953 | 0.98 | 0.96 |
| NCI-H1755 | 0.998 | 0.987 | 1.02 | 1.04 | 0.98 | 1.03 | 1.15 | 0.985 | 1.09 | 0.99 | 1.04 | 1.04 | 0.892 | 1.02 | 0.952 | 0.975 | 0.973 | 0.96 |
